Results taken from patent publication US12622893B2, “Alpha2 adrenergic agonist codrugs conjugated with muscarinic agonist drugs” (ADS THERAPEUTICS LLC, priority 2021, dated 2026).

Assays:
[1] = In vitro metabolic stability in rabbit cornea homogenates; assay type: in vitro ADME, Dutch Belted rabbits; details: 1 μM test compound, 0.3 mg/mL corneal protein homogenate, pH=6.0, 37° C.; for Rate of formation Metabolite 1: metabolite 1 = pilocarpine; for Rate of formation Metabolite 2: metabolite 2 as named under each value (Dexmedetomidine metabolite, brimonidine metabolite or brimonidine)
Protocol: Dutch Belted rabbits will be euthanized with an overdose of sodium pentobarbital. The corneas will be collected and homogenized in ice-cold potassium chloride solution (pH=7.4). The homogenate will be centrifuged at 755×g for 30 min at 4° C. and aliquots of the supernatant will be stored at or below −70° C. until metabolism experiments will be conducted. Prior to storing the homogenates, an aliquot will be removed for the determination of protein concentrations by calculating the […] using a spectrophotometer. All metabolic stability experiments will be performed in triplicate in 96-well plate format. The final incubation mixture will contain 1 μM test compound, 0.3 mg/mL corneal protein homogenate in a final volume of 0.5 mL 0.1 M potassium phosphate buffer (pH=6.0). The final percentage of solvent in the incubation will be less than 1.0% to prevent inhibition of enzymatic activity. Following a pre-incubation at 37° C., test article will be added to initiate the reaction. At designated time points (typically less than 60 minutes to capture the linear range of metabolite formation), 0.05 mL aliquots will be removed from the incubation mixtures using a clean pipet tip and immediately placed in organic solvent to stop any esterase activity. The hydrolysis to the metabolites will be confirmed to be due to esterase activity and not chemical stability. The samples will be analyzed by liquid chromatography with mass spectrometry (LC-MS/MS) detection to determine the metabolite concentrations resulting from the metabolism of the hybrid compounds. Internal standards were used to compensate for variability from sample processing, chromatographic elution, mass spectrometer response and ion suppression by matrix components.

rabbit pupil [2] = assay: In vivo pharmacology study of measuring pupil size (Example 27); parameters: species or system Dutch belted rabbits; details: FIG. 2; 0.5% and 2%
Protocol: (§1) Three (3) female Dutch belted rabbits were randomly assigned to each group by Provantis or Excel based on body weight. Each animal was dosed 40 μL of testing article (see Table 4 below) to both eyes. The pupil sizes of both eyes were measured at baseline (30 minutes before dosing), 0.5 h, 1 h, 2 h, 3 h, 4 h, 6 h, 8 h after dosing. The pupil size measurement data were analyzed for efficacy of pupil constriction. CBT compounds tested are co-drugs of pilocarpine-alpha adrenergic agonists as described above. The vehicle used to dissolve CBT compounds is the same as the vehicle used in the negative control in group 1. Positive control 1 is 1.25% Pilocarpine HCl in an aqueous buffer. Positive control 2 is 3.0% Carbachol and 0.2% Brimonidine in an aqueous buffer. This control can result in a large pupil constrictive effect.

rabbit pupil [3] = assay: In vivo pharmacology study of measuring pupil size (Example 28); parameters: species or system Dutch belted rabbits; details: FIG. 3; for efficacy of pupil constriction compared with positive control 1: positive control 1 is 1.25% Pilocarpine HCl; for potency of pupil constriction compared with other co-drugs: all co-drugs at 1%
Protocol: as §1, with “Table 5” for “Table 4”, “8 h, 24” for “8”, “constriction. Co-drug” for “constriction. CBT”, “compounds” for “compounds tested”, “dissolve Co-drug” for “dissolve CBT”

[4] = In vivo ocular pharmacokinetics following a single topical ophthalmic administration; parameters: species or system New Zealand White Rabbits; details: 0.5% (w/v) solution; for Conc. of Co-drug in Cornea Tissue: both eyes
Protocol: Rabbits will be dosed once by ocular instillation to both eyes with each compound formulated in a 0.5% (w/v) solution. At 0.25, 0.5, 1, 2, 6 and 10 hours post dose, cornea, aqueous humor, conjunctiva and eyelid margin will be collected and stored at approximately −70° C. until bioanalysis. Ocular tissue samples will be analyzed by liquid chromatography with mass spectrometry detection to determine the parent and metabolite (pilocarpine and brimonidine) concentrations resulting from the metabolism of ester linked co-drugs. Internal standards will be used to compensate for variability from sample processing, chromatographic elution, mass spectrometer response and ion suppression by matrix components. […]

[5] = 0.25 hr after dosing the co-drug
[6] = 0.5 hr after dosing the co-drug

With `CC[C@H](C(=O)OCc1cccc([C@H](C)c2c[nH]cn2)c1C)[C@H](CO)Cc1cncn1C` [Compound-1, 3-((S)-1-(1H-imidazol-4-yl)ethyl)-2-methylbenzyl (2S,3R)-2-ethyl-4-hydroxy-3-((1-methyl-1H-imidazol-5-yl)methyl)butanoate] the “Rate of formation Metabolite 1” value [1] was 5.56 ± 0.43 nM/min/mg and the “Rate of formation Metabolite 2” value [1] was 3.52 ± 0.23 nM/min/mg.

With `CC[C@H](C(=O)OCc1cccc([C@H](C)c2c[nH]cn2)c1C)[C@H](COC(C)=O)Cc1cncn1C` [Compound-2, 3-((S)-1-(1H-imidazol-4-yl)ethyl)-2-methylbenzyl (2S,3R)-4-acetoxy-2-ethyl-3-((1-methyl-1H-imidazol-5-yl)methyl)butanoate] the “dose relation of pupil constriction” value (rabbit pupil [2]) was “dose-related effects”, the “Rate of formation Metabolite 1” value [1] was 4.34 ± 0.11 nM/min/mg and the “Rate of formation Metabolite 2” value [1] was 2.87 ± 0.78 nM/min/mg.

With `CC[C@H](C(=O)OCOC(=O)N1CCN=C1Nc1ccc2[nH]cnc2c1Br)[C@H](COC(C)=O)Cc1cncn1C` [Compound-4, (((2S,3R)-4-acetoxy-2-ethyl-3-((1-methyl-1H-imidazol-5-yl)methyl)butanoyl)oxy)methyl 2-((4-bromo-1H-benzo[d]imidazol-5-yl)amino)-4,5-dihydro-1H-imidazole-1-carboxylate] the “Rate of formation Metabolite 1” value [1] was 5.87 ± 0.97 nM/min/mg and the “Rate of formation Metabolite 2” value [1] was 6.34 ± 0.07 nM/min/mg.

With `CC[C@H](C(=O)N1CCN/C1=N/c1ccc2nccnc2c1Br)[C@H](COC(C)=O)Cc1cncn1C` [Compound-16, (2R,3S)-3-((Z)-2-((5-bromoquinoxalin-6-yl)imino)imidazolidine-1-carbonyl)-2-((1-methyl-1H-imidazol-5-yl)methyl)pentyl acetate] the “efficacy of pupil constriction compared with positive control 1” value (rabbit pupil [3]) was “efficacies similar to that of positive control 1” and the “potency of pupil constriction compared with other co-drugs” value (rabbit pupil [3]) was “better potency than Compound-15 and Compound-19”.

In the case of `CC[C@H](C(=O)N1CCN/C1=N/c1ccc2nccnc2c1Br)[C@H](COC(=O)C(C)(C)C)Cc1cncn1C` [Compound-20, (2R,3S)-3-((Z)-2-((5-bromoquinoxalin-6-yl)imino)imidazolidine-1-carbonyl)-2-((1-methyl-1H-imidazol-5-yl)methyl)pentyl pivalate], the “efficacy of pupil constriction compared with positive control 1” value (rabbit pupil [3]) is reported as “efficacies similar to that of positive control 1” and the “potency of pupil constriction compared with other co-drugs” value (rabbit pupil [3]) is reported as “better potency than Compound-15 and Compound-19”.

With `CC[C@H](C(=O)OCOC(=O)N1CCN=C1Nc1ccc2[nH]cnc2c1Br)[C@H](CO)Cc1cncn1C` [compound 3, (((2S,3R)-2-ethyl-4-hydroxy-3-((1-methyl-1H-imidazol-5-yl)methyl)butanoyl)oxy)methyl 2-((4-bromo-1H-benzo[d]imidazol-5-yl)amino)-4,5-dihydro-1H-imidazole-1-carboxylate] the “Rate of formation Metabolite 1” value [1] was 8.86 ± 0.13 nM/min/mg and the “Rate of formation Metabolite 2” value [1] was 1.23 ± 0.03 nM/min/mg.

With `CC[C@H](C(=O)OCOC(=O)N1CCN=C1Nc1ccc2nccnc2c1Br)[C@H](CO)Cc1cncn1C` [compound 5, (((2S,3R)-2-ethyl-4-hydroxy-3-((1-methyl-1H-imidazol-5-yl)methyl)butanoyl)oxy)methyl 2-((5-bromoquinoxalin-6-yl)amino)-4,5-dihydro-1H-imidazole-1-carboxylate] the “Rate of formation Metabolite 1” value [1] was 2.13 ± 0.24 nM/min/mg and the “Rate of formation Metabolite 2” value [1] was 4.98 ± 0.34 nM/min/mg.

With `CC[C@H](C(=O)OCOC(=O)N1CCN=C1Nc1ccc2nccnc2c1Br)[C@H](COC(C)=O)Cc1cncn1C` [compound 6, (((2S,3R)-4-acetoxy-2-ethyl-3-((1-methyl-1H-imidazol-5-yl)methyl)butanoyl)oxy)methyl 2-((5-bromoquinoxalin-6-yl)amino)-4,5-dihydro-1H-imidazole-1-carboxylate] the “Conc. of Brimonidine (Metabolite 2) in Cornea Tissue” value (“Conc. of Brimonidine” below) [4, 5] was 24 ± 12 ng/mL, the “Conc. of Pilocarpine (Metabolite 1) in Cornea Tissue” value (“Conc. of Pilocarpine” for short) [4, 5] was 39 ± 37 ng/mL and the “Conc. of Co-drug in Cornea Tissue” value ([4]; 0.25 hr post dose) was 7238 ± 345 ng/mL. For the same compound, the “Conc. of Brimonidine” value [4, 6] was 78 ± 54 ng/mL, the “Conc. of Pilocarpine” value [4, 6] was 139 ± 78 ng/mL and the “Conc. of Co-drug in Cornea Tissue” value ([4]; 0.5 hr post dose) was 987 ± 245 ng/mL. The “Conc. of Brimonidine” value ([4]; 1 hr after dosing the co-drug) was 98 ± 23 ng/mL, the “Conc. of Pilocarpine” value ([4]; 1 hr after dosing the co-drug) was 379 ± 120 ng/mL and the “Conc. of Co-drug in Cornea Tissue” value ([4]; 1 hr post dose) was 234 ± 33 ng/mL. For the same compound, the “Conc. of Brimonidine” value ([4]; 2 hr after dosing the co-drug) was 139 ± 37 ng/mL, the “Conc. of Pilocarpine” value ([4]; 2 hr after dosing the co-drug) was 539 ± 30 ng/mL and the “Conc. of Co-drug in Cornea Tissue” value ([4]; 2 hr post dose) was 95 ± 19 ng/mL. The “Conc. of Brimonidine” value ([4]; 6 hr after dosing the co-drug) was 339 ± 134 ng/mL, the “Conc. of Pilocarpine” value ([4]; 6 hr after dosing the co-drug) was 754 ± 127 ng/mL and the “Conc. of Co-drug in Cornea Tissue” value ([4]; 6 hr post dose) was 39 ± 37 ng/mL. The “Conc. of Brimonidine” value ([4]; 10 hr after dosing the co-drug) was 539 ± 97 ng/mL, the “Conc. of Pilocarpine” value ([4]; 10 hr after dosing the co-drug) was 867 ± 37 ng/mL and the “Conc. of Co-drug in Cornea Tissue” value ([4]; 10 hr post dose) was 12 ± 3 ng/mL. The “Rate of formation Metabolite 1” value [1] was 7.43 ± 0.27 nM/min/mg and the “Rate of formation Metabolite 2” value [1] was 1.98 ± 0.09 nM/min/mg.
